Experimental data from PubChem BioAssay (NCI).
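Following 48 hours of exposure in 96-well plates, responses at five concentrations were used to interpolate endpoints linearly. TGI marks complete inhibition of growth.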

Assays:
Test in all cases: NCI-60 cell line screen, 48 h
786-0 renal = tested on: 786-0 renal
BT-549 breast = tested on: BT-549 breast
CAKI-1 renal = tested on: CAKI-1 renal
EKVX NSCLC = tested on: EKVX NSCLC
HOP-92 NSCLC = tested on: HOP-92 NSCLC
K-562 leukemia = tested on: K-562 leukemia
MDA-MB-435 = tested on: MDA-MB-435
MOLT-4 leukemia = tested on: MOLT-4 leukemia
SF-268 CNS = tested on: SF-268 CNS
SNB-19 CNS = tested on: SNB-19 CNS
U251 CNS = tested on: U251 CNS

SMILES | TGI (786-0 renal) [µM] | TGI (BT-549 breast) [µM] | TGI (CAKI-1 renal) [µM] | TGI (EKVX NSCLC) [µM] | TGI (HOP-92 NSCLC) [µM] | TGI (K-562 leukemia) [µM] | TGI (MDA-MB-435) [µM] | TGI (MOLT-4 leukemia) [µM] | TGI (SF-268 CNS) [µM] | TGI (SNB-19 CNS) [µM] | TGI (U251 CNS) [µM]
CC(=O)/C(=N\Nc1ccc(Cl)cc1)C(C)=Nc1ccc(C)cc1 | > 100 | > 100 | > 100 | > 100 | 37.4 | > 100 | > 100 | > 100 | > 100 | > 100 | > 100
NC(=O)NN=C1Cc2ccccc2C1 | > 100 | > 100 | > 100 | > 100 | > 100 | > 100 | > 100 | > 100 | > 100 | > 100 | > 100
CCc1nc2c(c(N(C)C)c1C(=O)OC)CCc1ccccc1-2 | > 100 | > 100 | > 100 | > 100 | > 100 | 77.3 | 65.6 | 23 | > 100 | > 100 | > 100
CC1=C(C)SC(=C2Sc3c(n(C)c(=O)n(C)c3=O)S2)S1 | 34.8 | > 100 | > 100 | > 100 | > 100 | > 100 | > 100 | > 100 | > 100 | > 100 | 18.9
CC1(C)C=C(/C=C2/N(S(=O)(=O)C(F)(F)F)C(/C=C3/N(S(=O)(=O)C(F)(F)F)C(C)(C#N)CC3(C)C)=CC2(C)C)N=C1/C=C1/CC(C)(C)C(=O)N1 (centres undefined) | > 100 | > 100 | > 100 | 81.2 | 95.3 | > 100 | > 100 | > 100 | 36 | > 100 | > 100
Cc1cc(-c2cc(C(C)(C)C)c(O)c(C(C)(C)C)c2)c(C)cc1-c1cc(C(C)(C)C)c(O)c(C(C)(C)C)c1 | > 100 | > 100 | > 100 | > 100 | 38.2 | > 100 | 32.7 | > 100 | > 100 | > 100 | > 100
NC(=O)C1CCN(Cc2c(Cl)c(Cl)c(CN3CCC(C(N)=O)CC3)c(Cl)c2Cl)CC1 | > 100 | > 100 | > 100 | > 100 | > 100 | > 100 | > 100 | > 100 | > 100 | > 100 | > 100
COC1(CC[C@H](C)COC2OC(CO)C(O)C(O)C2O)O[C@H]2C[C@H]3[C@@H]4CC=C5C[C@@H](OC6OC(CO)C(OC7OC(C)C(O)C(O)C7O)C(O)C6OC6OC(C)C(O)C(O)C6O)CC[C@]5(C)[C@H]4CC[C@]3(C)[C@H]2[C@@H]1C (some centres undefined) | 5.57 | 13.1 | 3.26 | 98.8 | 6.2 | > 100 | 5.3 | > 100 | 10.3 | 12.4 | 7.36
O=C(c1ccc([N+](=O)[O-])cc1)N1CCCC1 | > 100 | > 100 | > 100 | > 100 | > 100 | > 100 | > 100 | > 100 | > 100 | > 100 | > 100
CSc1ncc2c(n1)-c1ccccc1OC2NC1CC1 (centres undefined) | > 100 | > 100 | 86.3 | > 100 | > 100 | > 100 | > 100 | > 100 | > 100 | > 100 | > 100
CC1=NN2C(=N)/C(=C/c3ccc(F)cc3)C(=O)N=C2S1 | > 100 | > 100 | > 100 | > 100 | > 100 | > 100 | > 100 | > 100 | > 100 | > 100 | > 100
CS(=O)(=O)Nc1ccc2ccccc2c1 | > 100 | > 100 | > 100 | > 100 | > 100 | > 100 | > 100 | > 100 | > 100 | > 100 | > 100
CN1C2=Nc3n(c4ccccc4[n+]3C)CN2c2ccccc21 | > 100 | > 100 | > 100 | > 100 | 81.1 | > 100 | 91 | > 100 | 44.1 | > 100 | > 100
CC1(C)OCC(C2OC(C)(C)OC2[C@H]2O[C@@]3(O)[C@H]4[C@H](C=CC[C@@H]42)[C@@H](OCc2ccccc2)[C@H](OCc2ccccc2)[C@H]3OCc2ccccc2)O1 (some centres undefined) | > 100 | > 100 | > 100 | > 100 | > 100 | > 100 | > 100 | 44.3 | > 100 | > 100 | > 100
